Laboratory results published in patent publication US20220362184A1, “GUT-PROTECTIVE COMPOSITIONS COMPRISING BOSWELLIC ACID” (INVENTIA HEALTHCARE LIMITED, priority 2019, published 2022).

Legend:
[1] = test system: Dextran Sodium Sulphate (2.5% w/v) induced colitis in BALB/c mice; test: Dextran Sodium Sulphate induced colitis, gut-protective effect; assay type: in vivo
Procedure: The compositions comprising boswellic acids are also evaluated for their gut-protective effect using Dextran Sodium Sulphate (2.5% w/v) induced colitis in BALB/c mice. Body weights of mice were recorded during study period, macroscopic examination was carried out for all terminal sacrificed, moribund and found dead animals. Colon and rectum were collected, and histopathology was performed. The composition comprising boswellic acid was also evaluated for gut-protective effect through antimicrobial activity against Helicobacter pylori strains using Micro-broth dilution method. The anti-bacterial minimum inhibitory concentration (MIC) was checked for the composition against Amoxycillin.
The gut-protective effect of composition comprising boswellic acids was evaluated using Dextran Sodium Sulphate (2.5% w/v) induced colitis in BALB/c mice. Dextran Sodium Sulphate (DSS) (36000 to 50000 Daltons molecular weight) was added in autoclaved drinking water and administered to the animals over 10 days for inducing disease condition. Group 2 served as disease control. Groups 3, 4 and 5 were treated with Test Item 1 (G3), Test Item 2 (G4) and Reference (Sulfasalazine—G5), respectively. Concurrent vehicle control group (G1) was also maintained.
Onset of colitis symptoms was monitored by measuring percent body weight, stool consistency (SC) and fecal occult blood (FOB). During the study period (10 days), Disease Activity Index (DAI) was calculated from scores of percent body weight, SC and FOB and were reported. Treatment was continued along with the DSS administration in drinking water up to 10 days by oral administration of Test and Reference Item as follows: • Group 1—Normal control (no DSS & no treatment) • Group 2—Disease control (only DSS, no treatment) • Group 3—DSS+Boswellic acid composition of Example 2: 41 mg/kg • Group 4—DSS+Boswellic acid composition of Example 4: 41 mg/kg • Group 5—DSS+Sulfasalazine: 30 mg/kg
Body weights were recorded daily throughout the study period. Macroscopic examination was carried out for all the terminal sacrificed, moribund and found dead animals. Colon and rectum were collected, and histopathology was performed.

[2] = test system: Helicobacter pylori strains; test: Micro-broth dilution antimicrobial activity (MIC, CLSI); assay type: cell-based; conditions: growth inhibited >90% compared to growth control
Procedure: Micro-broth dilution method was used to determine the antimicrobial activity of boswellic acid composition against Helicobacter pylori strains. The anti-bacterial minimum inhibitory concentration (MIC) study was performed as per the Clinical and Laboratory Standards Institute (CLSI) guidelines.
The test compound (composition comprising boswellic acid) was dissolved using Methanol to a concentration of 12.8 mg/mL (stock). Amoxicillin was dissolved in sterile Phosphate buffer to a concentration of 2 mg/mL.

| Structure (SMILES) | percentage of mortality during the study period ([1]; 10 days oral with DSS, compositions 41 mg/kg, sulfasalazine 30 mg/kg) | % body weight change ([1]; Day 10, disease control −20.34%, vehicle control −0.44%) | Mean Disease Activity Index (DAI) ([1]; females, Day 10, disease control 3.9) | Mean Disease Activity Index (DAI) ([1]; males, Day 10, disease control 3.1) | MIC [2] |
| --- | --- | --- | --- | --- | --- |
| O=C(O)c1cc(/N=N/c2ccc(S(=O)(=O)Nc3ccccn3)cc2)ccc1O [Sulfasalazine] | 20% | −17.77% | 3.2 | 3.6 | – |
| CC1(C)S[C@@H]2[C@H](NC(=O)[C@H](N)c3ccc(O)cc3)C(=O)N2[C@H]1C(=O)O [Amoxicillin] | – | – | – | – | < 0.25 µg/mL |
